Measured values reported in paper PMC4400119 (Cancer chemotherapy and pharmacology, 2014).
Read-outs that look alike come from different tables or passages of the source.

Key:
NCI-60 panel [1] = details: average response from all cell lines tested, cited from earlier work; for GI50: read-out: Potency, Mean GI50
T47D = assay: MTT cell viability assay, T47D; type: cell-based; details: Homo sapiens, 72 h, read-out: EC50 cell viability, Breast T47D
Huh-7 [2] = assay: MTT cell viability assay, Huh-7; type: cell-based; details: Homo sapiens, Huh-7, 72 h, read-out: EC50 cell viability, Liver Huh-7
HepG2 [3] = assay: MTT cell viability assay, HepG2; type: cell-based, human
PC-3 = assay: MTT cell viability assay, PC-3; type: cell-based; details: Homo sapiens, PC-3, 72 h, read-out: EC50 cell viability, Prostate PC-3
ACHN = assay: MTT cell viability assay, ACHN; type: cell-based; details: Homo sapiens, 72 h, read-out: EC50 cell viability, Kidney ACHN
SKBR3 = assay: MTT cell viability assay, SKBR3; type: cell-based; details: Homo sapiens, SK-BR-3, 72 h, read-out: EC50 cell viability, Breast SKBR3
HepG2 [4] = assay: Caspase-Glo 3/7 induction, HepG2; type: cell-based, human
Huh-7 [5] = assay: Caspase-Glo 3/7 induction, Huh-7; type: cell-based, human
KM12 (colon cancer) = assay: NCI-60 human tumor cell line screen, KM12; type: cell-based
FGFR2 = FGFR2 (Homo sapiens, UniProt P21802); assay: KinaseSeeker kinase screen, FGFR2; type: binding; details: 10 μM, compared with sorafenib
Chain of FGFR2 (P21802 22-821): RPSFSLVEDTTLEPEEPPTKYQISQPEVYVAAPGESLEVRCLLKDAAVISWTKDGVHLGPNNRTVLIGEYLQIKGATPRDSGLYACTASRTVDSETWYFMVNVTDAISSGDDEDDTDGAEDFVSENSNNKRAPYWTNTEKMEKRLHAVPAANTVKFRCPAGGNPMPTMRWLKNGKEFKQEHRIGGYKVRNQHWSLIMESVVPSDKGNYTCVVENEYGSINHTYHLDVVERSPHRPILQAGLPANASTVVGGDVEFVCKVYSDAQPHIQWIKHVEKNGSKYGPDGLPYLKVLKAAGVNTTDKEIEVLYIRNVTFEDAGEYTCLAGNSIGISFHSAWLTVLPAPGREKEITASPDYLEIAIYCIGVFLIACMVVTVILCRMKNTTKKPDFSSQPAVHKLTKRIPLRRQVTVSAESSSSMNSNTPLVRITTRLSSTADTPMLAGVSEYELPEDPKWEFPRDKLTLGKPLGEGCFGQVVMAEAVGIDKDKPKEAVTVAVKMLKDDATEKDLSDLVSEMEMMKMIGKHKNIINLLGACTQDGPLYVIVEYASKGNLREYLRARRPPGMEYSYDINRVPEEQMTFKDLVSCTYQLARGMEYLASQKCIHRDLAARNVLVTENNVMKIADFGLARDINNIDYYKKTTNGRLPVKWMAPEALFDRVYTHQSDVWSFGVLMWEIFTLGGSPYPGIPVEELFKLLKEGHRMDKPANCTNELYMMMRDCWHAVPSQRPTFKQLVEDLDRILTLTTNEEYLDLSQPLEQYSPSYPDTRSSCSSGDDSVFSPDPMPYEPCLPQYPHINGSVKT

HepG2 cells [6] = assay: Cell cycle analysis; type: cell-based, human; details: 30 μM, 24-h exposure
Raf-1 kinase = details: read-out: IC50 recombinant Raf-1 kinase inhibition; cited from earlier work
EPHA1 = biological target: T1, EPHA1 (Homo sapiens, UniProt P21709); assay: KinaseSeeker kinase screen, EPHA1; type: binding; details: 10 μM, compared with sorafenib
T1 sequence (P21709 26-976): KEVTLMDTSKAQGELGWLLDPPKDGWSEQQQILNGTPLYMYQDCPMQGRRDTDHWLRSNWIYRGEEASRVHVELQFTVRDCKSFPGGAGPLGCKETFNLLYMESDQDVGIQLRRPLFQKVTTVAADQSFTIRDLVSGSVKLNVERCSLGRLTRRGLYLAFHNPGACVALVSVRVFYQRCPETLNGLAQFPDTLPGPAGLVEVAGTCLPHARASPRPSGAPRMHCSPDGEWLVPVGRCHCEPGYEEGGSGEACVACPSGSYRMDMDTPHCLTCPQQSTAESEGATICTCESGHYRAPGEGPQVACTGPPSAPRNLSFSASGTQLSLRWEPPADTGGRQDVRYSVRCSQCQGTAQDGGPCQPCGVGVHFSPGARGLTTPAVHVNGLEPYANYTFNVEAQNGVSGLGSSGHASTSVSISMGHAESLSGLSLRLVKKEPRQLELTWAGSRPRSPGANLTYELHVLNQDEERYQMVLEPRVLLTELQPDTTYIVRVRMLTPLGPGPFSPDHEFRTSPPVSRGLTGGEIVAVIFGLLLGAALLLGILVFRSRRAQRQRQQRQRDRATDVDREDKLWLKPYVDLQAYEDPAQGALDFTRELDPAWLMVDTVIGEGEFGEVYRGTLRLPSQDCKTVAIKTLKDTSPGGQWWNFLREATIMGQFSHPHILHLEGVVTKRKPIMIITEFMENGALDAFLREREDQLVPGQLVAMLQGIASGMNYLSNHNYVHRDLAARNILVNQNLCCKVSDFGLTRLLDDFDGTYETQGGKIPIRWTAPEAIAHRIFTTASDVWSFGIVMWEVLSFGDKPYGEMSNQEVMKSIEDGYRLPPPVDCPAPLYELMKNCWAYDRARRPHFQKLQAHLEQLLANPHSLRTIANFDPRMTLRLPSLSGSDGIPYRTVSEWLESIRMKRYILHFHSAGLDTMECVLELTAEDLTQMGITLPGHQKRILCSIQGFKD

HepG2 cells [7] = assay: Mitochondrial membrane depolarization and AIF release; type: cell-based, human; details: 30 μM, 6 h
STAT3 phosphorylation = assay: Western blot, STAT3 phosphorylation; type: cell-based, human; details: 10 μM, 24 h exposure
NCI-60 panel [8] = details: average response from all cell lines tested
[9] = Pharmacokinetic study, cassette oral administration in mice; type: in vivo; details: oral 1 mg/kg
HepG2 cells [10] = assay: Cell viability with pan-caspase inhibitor Z-VAD-FMK co-treatment; type: cell-based, human; details: Z-VAD-FMK 20 μM pre-incubation 60 min, then 30 μM compound for 24 h
[11] = test system: oncogenic b-Raf (V600E) kinase; details: relative to sorafenib; cited from earlier work
[12] = biological target: soluble epoxide hydrolase (sEH); details: read-out: IC50 against sEH; cited from earlier work

| SMILES | Potency, Mean TGI50 (NCI-60 panel [1]) [µM] | GI50 (NCI-60 panel [1]) [µM] | EC50 (T47D) [µM] | EC50 (Huh-7 [2]) [µM] | EC50 (PC-3) [µM] | EC50 (ACHN) [µM] | EC50 (SKBR3) [µM] | IC50 (Raf-1 kinase) [µM] | mitochondrial membrane depolarization and release of AIF (HepG2 cells [7]) | effect of Z-VAD-FMK on compound-induced cell death (HepG2 cells [10]) | also measured |
| --- | --- | --- | --- | --- | --- | --- | --- | --- | --- | --- | --- |
| C#Cc1cccc(Nc2ncnc3cc(OCCOC)c(OCCOC)cc23)c1 [Erlotinib (Tarceva®)] | 59 | 5.5 |  |  |  |  |  |  |  |  |  |
| CCN(CC)CCNC(=O)c1c(C)[nH]c(/C=C2\C(=O)Nc3ccc(F)cc32)c1C [Sunitinib] | 9.6 | 2.2 | 12 ± 1 | 8 ± 0.9 | 8 ± 0.5 | 8 ± 1 | 10 ± 0.9 |  |  |  | EC50 (HepG2 [3]; Homo sapiens, HepG2, 72 h, read-out: EC50 cell viability, Liver HepG2): 7.5 ± 0.8 µM |
| CNC(=O)c1cc(O[C@H]2CC[C@H](NC(=O)Nc3ccc(Cl)c(C(F)(F)F)c3)CC2)ccn1 [t-CUPM] |  |  |  |  |  |  |  | 0.075 | observed | no protective effect | caspase 3/7 induction (HepG2 [4]; HepG2, 25 μM, 72-h incubation): levels of caspase induction similar to sorafenib; caspase 3/7 induction (Huh-7 [5]; Huh-7, 25 μM, 72-h incubation): levels of caspase induction similar to sorafenib; GI50 (KM12 (colon cancer)): 0.64 µM; kinase inhibitory activity toward FGFR2 (FGFR2): reduced its kinase inhibitory activity; effect on cell cycle progression (HepG2 cells [6]): arrest in G0/G1 transition; EC50 relative to that of sorafenib (HepG2 [3]; cell viability, hepatoma cell lines HepG2 and Huh-7): < twofold; kinase inhibitory activity toward EPHA1 (EPHA1): reduced its kinase inhibitory activity; suppression of STAT3 phosphorylation (STAT3 phosphorylation): not as effective as sorafenib; Potency, Mean TGI50 (NCI-60 panel [8]): 34 µM; GI50 (NCI-60 panel [8]; read-out: Potency, Mean GI50): 9 µM; Cmax compared with sorafenib [9]: higher Cmax; AUCt compared with sorafenib ([9]; 0.5 to 48 h): significantly higher AUCt; blood levels relative to sorafenib ([9]; from 0.5 to 48 h): tenfold; loss in the activity toward oncogenic b-Raf (V600E) kinase [11]: 40 fold |
| COc1cc2ncnc(Nc3ccc(F)c(Cl)c3)c2cc1OCCCN1CCOCC1 [Gefitinib (Iressa®)] | 19 | 3.2 |  |  |  |  |  |  |  |  |  |
| Cc1ccc(NC(=O)c2ccc(CN3CCN(C)CC3)cc2)cc1Nc1nccc(-c2cccnc2)n1 [Imatinib (Gleevac®)] | 43 | 15 |  |  |  |  |  |  |  |  |  |
| CNC(=O)c1cc(Oc2ccc(NC(=O)Nc3ccc(Cl)c(C(F)(F)F)c3)cc2)ccn1 [Sorafenib] | 6.0 | 1.9 | 3 ± 0.5 | 4.2 ± 0.5 | 5.5 ± 0.8 | 4 ± 0.5 | 6.5 ± 0.5 | […] | observed | no protective effect | lowest level at which caspase activation was observable (HepG2 [4]; HepG2, 72-h incubation): 0.1 µM; lowest level at which caspase activation was observable (Huh-7 [5]; Huh-7, 72-h incubation): 0.1 µM; IC50 [12]: 0.012 µM |
